Reference: ChEMBL document CHEMBL4350957, “Use of the 4-Hydroxytriazole Moiety as a Bioisosteric Tool in the Development of Ionotropic Glutamate Receptor Ligands” (J Med Chem, 2019)
The source made the active and inactive calls. The calls are words filed in the database; no cut-off is given here.

Assays:
[1] = target: T1, Glutamate NMDA receptor; Grin1/Grin2a (Rattus norvegicus) (UniProt P35439+Q00959); test: Agonist activity at recombinant rat GluN1a/GluN2A expressed in Xenopus laevis oocytes at 100 uM at -40 mV holding potential by two-electrode voltage clamp electrophysiology method; assay type: cell-based
[2] = target: T2, Glutamate NMDA receptor; Grin1/Grin2b (Rattus norvegicus) (UniProt P35439+Q00960); test: Agonist activity at recombinant rat GluN1a/GluN2B expressed in Xenopus laevis oocytes at 100 uM at -40 mV holding potential by two-electrode voltage clamp electrophysiology method; assay type: cell-based
[3] = target: T3, Glutamate NMDA receptor; Grin1/Grin2c (Rattus norvegicus) (UniProt P35439+Q00961); test: Agonist activity at recombinant rat GluN1a/GluN2C expressed in Xenopus laevis oocytes at 100 uM at -40 mV holding potential by two-electrode voltage clamp electrophysiology method; assay type: cell-based
[4] = target: T4, Ionotropic glutamate receptor NMDA 1/2D (Rattus norvegicus) (UniProt P35439+Q62645); test: Agonist activity at recombinant rat GluN1a/GluN2D expressed in Xenopus laevis oocytes at 100 uM at -40 mV holding potential by two-electrode voltage clamp electrophysiology method; assay type: cell-based
[5] = target: T1, Glutamate NMDA receptor; Grin1/Grin2a (Rattus norvegicus); test: Agonist activity at recombinant rat GluN1a/GluN2A expressed in Xenopus laevis oocytes at 300 uM at -40 mV holding potential in presence of glutamate by two-electrode voltage clamp electrophysiology method relative to control; assay type: cell-based
[6] = target: T2, Glutamate NMDA receptor; Grin1/Grin2b (Rattus norvegicus); test: Agonist activity at recombinant rat GluN1a/GluN2B expressed in Xenopus laevis oocytes at 300 uM at -40 mV holding potential in presence of glutamate by two-electrode voltage clamp electrophysiology method relative to control; assay type: cell-based
[7] = target: T3, Glutamate NMDA receptor; Grin1/Grin2c (Rattus norvegicus); test: Agonist activity at recombinant rat GluN1a/GluN2C expressed in Xenopus laevis oocytes at -40 mV holding potential in presence of glutamate by two-electrode voltage clamp electrophysiology method relative to control; assay type: cell-based
[8] = target: T4, Ionotropic glutamate receptor NMDA 1/2D (Rattus norvegicus); test: Agonist activity at recombinant rat GluN1a/GluN2D expressed in Xenopus laevis oocytes at -40 mV holding potential in presence of glutamate by two-electrode voltage clamp electrophysiology method relative to control; assay type: cell-based
[9] = target: T1, Glutamate NMDA receptor; Grin1/Grin2a (Rattus norvegicus); test: Agonist activity at recombinant rat GluN1a/GluN2A expressed in Xenopus laevis oocytes at 300 uM at -40 mV holding potential in presence of glycine by two-electrode voltage clamp electrophysiology method relative to glycine; assay type: cell-based
[10] = target: T4, Ionotropic glutamate receptor NMDA 1/2D (Rattus norvegicus); test: Agonist activity at recombinant rat GluN1a/GluN2D expressed in Xenopus laevis oocytes at -40 mV holding potential in presence of glycine by two-electrode voltage clamp electrophysiology method relative to glycine; assay type: cell-based
[11] = target: Glutamate receptor ionotropic, AMPA (Rattus norvegicus, UniProt P19490+P19491+P19492+P19493)
[12] = target: T5, Ionotropic glutamate receptor NMDA 1/2D (Rattus norvegicus, UniProt P35439+Q62645)
[13] = target: T5, Ionotropic glutamate receptor NMDA 1/2D; remark: listed apart in the source
[14] = target: T6, Glutamate receptor 1 (Homo sapiens, UniProt P42261); test: Agonist activity at GluA1 receptor (unknown origin) expressed in HEK293 cells assessed induction of S-glutamate-induced calcium flux at 300 uM measured after 90 secs in presence of cyclothiazide by Fluo4-AM dye-based fluorescence assay relative to S-glutamate; assay type: cell-based
T6 sequence (P42261 whole entry): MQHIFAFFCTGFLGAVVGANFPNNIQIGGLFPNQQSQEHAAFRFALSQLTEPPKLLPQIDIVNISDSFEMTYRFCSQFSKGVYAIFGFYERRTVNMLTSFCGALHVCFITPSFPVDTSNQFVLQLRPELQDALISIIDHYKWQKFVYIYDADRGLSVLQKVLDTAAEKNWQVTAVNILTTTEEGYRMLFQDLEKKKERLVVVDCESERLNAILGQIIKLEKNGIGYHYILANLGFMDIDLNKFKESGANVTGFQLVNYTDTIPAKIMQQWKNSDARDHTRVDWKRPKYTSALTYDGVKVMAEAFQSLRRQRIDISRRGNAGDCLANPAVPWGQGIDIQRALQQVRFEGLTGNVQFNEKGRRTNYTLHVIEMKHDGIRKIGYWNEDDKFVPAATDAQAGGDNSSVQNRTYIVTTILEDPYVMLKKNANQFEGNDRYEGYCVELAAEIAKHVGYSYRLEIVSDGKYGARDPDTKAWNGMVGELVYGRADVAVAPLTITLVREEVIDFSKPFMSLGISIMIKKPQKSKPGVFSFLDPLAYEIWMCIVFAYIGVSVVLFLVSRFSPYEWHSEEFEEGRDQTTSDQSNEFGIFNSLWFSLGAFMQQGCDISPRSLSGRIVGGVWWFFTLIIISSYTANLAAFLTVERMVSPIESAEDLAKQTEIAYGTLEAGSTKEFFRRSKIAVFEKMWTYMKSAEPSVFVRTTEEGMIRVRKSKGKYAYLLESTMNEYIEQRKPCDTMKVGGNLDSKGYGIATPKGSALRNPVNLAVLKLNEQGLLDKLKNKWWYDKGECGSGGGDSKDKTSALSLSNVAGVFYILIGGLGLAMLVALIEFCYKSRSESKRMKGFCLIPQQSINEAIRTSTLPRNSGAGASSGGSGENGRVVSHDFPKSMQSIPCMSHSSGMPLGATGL

[15] = target: T7, Glutamate receptor 3 (Homo sapiens, UniProt P42263); test: Agonist activity at GluA3 receptor (unknown origin) expressed in HEK293 cells assessed induction of S-glutamate-induced calcium flux at 300 uM measured after 90 secs in presence of cyclothiazide by Fluo4-AM dye-based fluorescence assay relative to S-glutamate; assay type: cell-based
[16] = target: T8, Glutamate receptor 4 (Homo sapiens, UniProt P48058)
T8 sequence (P48058 whole entry): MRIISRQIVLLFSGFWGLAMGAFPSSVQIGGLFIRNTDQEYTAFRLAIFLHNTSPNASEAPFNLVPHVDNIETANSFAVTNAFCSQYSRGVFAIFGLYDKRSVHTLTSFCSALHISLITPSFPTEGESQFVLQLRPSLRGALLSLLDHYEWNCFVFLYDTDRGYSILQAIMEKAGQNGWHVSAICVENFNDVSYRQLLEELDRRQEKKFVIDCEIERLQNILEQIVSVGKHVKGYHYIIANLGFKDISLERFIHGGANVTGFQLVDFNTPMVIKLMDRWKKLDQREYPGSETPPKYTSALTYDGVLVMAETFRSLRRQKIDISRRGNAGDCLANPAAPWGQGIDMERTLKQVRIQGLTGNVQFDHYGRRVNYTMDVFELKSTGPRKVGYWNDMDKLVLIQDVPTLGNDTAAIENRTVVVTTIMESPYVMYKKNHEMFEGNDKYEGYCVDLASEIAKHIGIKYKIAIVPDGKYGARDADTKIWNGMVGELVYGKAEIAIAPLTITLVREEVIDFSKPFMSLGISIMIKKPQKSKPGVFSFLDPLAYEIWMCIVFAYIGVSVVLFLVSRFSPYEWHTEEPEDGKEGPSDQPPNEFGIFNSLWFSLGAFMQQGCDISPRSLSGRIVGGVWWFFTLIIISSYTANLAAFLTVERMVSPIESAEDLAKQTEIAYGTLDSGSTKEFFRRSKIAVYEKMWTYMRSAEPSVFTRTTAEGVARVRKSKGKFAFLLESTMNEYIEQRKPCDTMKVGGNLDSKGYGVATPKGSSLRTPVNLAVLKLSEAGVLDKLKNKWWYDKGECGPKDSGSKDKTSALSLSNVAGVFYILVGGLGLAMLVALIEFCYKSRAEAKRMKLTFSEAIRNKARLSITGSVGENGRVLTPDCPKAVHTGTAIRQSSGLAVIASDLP

[17] = target: Glutamate receptor 2 (Rattus norvegicus, UniProt P19491); test: biochemical
Glutamate receptor 2 (Rattus norvegicus, UniProt P19491), sequence (P19491 whole entry): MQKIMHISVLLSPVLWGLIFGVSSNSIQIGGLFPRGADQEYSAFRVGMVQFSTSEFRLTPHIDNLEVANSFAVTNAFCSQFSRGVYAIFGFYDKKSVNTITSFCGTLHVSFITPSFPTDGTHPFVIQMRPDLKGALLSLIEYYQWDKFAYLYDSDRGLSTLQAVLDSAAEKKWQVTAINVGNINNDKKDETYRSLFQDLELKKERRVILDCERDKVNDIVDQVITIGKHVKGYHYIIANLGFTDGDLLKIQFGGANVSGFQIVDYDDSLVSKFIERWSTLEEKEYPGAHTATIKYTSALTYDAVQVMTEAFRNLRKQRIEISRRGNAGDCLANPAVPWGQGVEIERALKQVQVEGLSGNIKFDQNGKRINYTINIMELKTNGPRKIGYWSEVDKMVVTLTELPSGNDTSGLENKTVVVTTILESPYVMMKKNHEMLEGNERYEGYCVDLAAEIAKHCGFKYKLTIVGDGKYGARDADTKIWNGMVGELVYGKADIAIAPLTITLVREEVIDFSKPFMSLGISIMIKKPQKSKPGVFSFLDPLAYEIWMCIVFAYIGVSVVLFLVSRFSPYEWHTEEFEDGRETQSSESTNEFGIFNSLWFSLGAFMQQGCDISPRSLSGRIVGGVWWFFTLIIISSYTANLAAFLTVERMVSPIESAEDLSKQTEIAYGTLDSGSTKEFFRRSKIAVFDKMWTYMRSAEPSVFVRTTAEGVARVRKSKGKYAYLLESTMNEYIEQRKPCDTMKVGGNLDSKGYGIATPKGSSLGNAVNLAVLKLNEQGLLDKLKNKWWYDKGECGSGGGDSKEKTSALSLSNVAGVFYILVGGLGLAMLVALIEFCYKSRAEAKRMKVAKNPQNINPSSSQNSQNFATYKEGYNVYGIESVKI

[18] = target: T6, Glutamate receptor 1
[19] = target: Glutamate receptor 2 (Homo sapiens, UniProt P42262)
Glutamate receptor 2 (Homo sapiens, UniProt P42262), sequence (P42262 whole entry): as the sequence (P19491 whole entry) above, with T191M, A291T, G764R, P852A counted along it

[20] = target: T7, Glutamate receptor 3
[21] = target: Glutamate NMDA receptor
[22] = target: Glutamate receptor 1 (Rattus norvegicus, UniProt P19490); test: biochemical
[23] = target: Glutamate receptor 3 (Rattus norvegicus, UniProt P19492); test: biochemical
Glutamate receptor 3 (Rattus norvegicus, UniProt P19492), sequence (P19492 whole entry): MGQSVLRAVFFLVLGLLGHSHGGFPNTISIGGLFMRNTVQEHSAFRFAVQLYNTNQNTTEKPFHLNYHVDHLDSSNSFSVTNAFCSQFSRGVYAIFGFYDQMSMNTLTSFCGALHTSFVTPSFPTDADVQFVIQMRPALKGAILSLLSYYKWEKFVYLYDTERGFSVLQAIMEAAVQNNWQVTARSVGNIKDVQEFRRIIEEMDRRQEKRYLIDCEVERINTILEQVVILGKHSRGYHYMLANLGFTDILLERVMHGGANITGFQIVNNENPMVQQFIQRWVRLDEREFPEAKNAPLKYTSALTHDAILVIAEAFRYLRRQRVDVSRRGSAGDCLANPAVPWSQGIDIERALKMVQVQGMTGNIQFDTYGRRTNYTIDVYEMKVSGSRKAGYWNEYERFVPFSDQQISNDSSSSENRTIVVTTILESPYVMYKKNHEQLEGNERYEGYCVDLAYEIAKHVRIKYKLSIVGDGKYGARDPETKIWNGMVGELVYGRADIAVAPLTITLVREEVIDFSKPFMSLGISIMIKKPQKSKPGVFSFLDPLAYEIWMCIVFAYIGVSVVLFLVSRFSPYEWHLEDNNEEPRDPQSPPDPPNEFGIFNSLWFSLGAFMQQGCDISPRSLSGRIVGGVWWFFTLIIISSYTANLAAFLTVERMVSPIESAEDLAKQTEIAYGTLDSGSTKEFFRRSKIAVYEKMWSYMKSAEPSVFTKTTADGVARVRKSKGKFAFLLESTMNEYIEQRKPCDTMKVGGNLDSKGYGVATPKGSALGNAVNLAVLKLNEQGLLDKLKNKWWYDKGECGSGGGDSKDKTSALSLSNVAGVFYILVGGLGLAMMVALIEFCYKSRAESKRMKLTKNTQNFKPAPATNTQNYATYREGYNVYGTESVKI

[24] = target: Glutamate receptor 4 (Rattus norvegicus, UniProt P19493); test: biochemical
Glutamate receptor 4 (Rattus norvegicus, UniProt P19493), sequence (P19493 whole entry): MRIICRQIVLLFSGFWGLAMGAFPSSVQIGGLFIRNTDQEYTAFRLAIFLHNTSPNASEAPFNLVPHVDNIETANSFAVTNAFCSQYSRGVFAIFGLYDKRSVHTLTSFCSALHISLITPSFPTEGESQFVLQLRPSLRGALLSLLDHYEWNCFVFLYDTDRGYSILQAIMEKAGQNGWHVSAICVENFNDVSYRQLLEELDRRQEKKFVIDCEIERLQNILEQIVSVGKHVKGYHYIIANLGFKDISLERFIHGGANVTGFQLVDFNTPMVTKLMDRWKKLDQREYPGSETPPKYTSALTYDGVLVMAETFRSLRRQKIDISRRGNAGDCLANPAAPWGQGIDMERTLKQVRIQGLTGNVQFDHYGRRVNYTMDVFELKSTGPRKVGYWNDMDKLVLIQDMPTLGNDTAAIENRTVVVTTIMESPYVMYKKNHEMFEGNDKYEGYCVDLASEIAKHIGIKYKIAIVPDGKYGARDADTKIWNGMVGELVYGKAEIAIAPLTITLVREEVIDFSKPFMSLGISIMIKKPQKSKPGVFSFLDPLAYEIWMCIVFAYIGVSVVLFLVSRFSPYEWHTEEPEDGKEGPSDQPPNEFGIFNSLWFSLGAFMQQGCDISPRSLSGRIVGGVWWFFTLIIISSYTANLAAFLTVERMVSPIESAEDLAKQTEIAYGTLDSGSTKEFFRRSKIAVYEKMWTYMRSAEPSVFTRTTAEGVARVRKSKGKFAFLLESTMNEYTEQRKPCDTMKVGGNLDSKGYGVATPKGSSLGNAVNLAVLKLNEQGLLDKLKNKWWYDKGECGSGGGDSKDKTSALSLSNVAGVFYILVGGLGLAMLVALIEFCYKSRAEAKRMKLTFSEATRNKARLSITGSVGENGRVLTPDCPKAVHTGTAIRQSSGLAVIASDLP

[25] = target: T8, Glutamate receptor 4; test: Agonist activity at GluA4 receptor (unknown origin) expressed in HEK293 cells assessed induction of S-glutamate-induced calcium flux at 1000 uM measured after 90 secs in presence of cyclothiazide by Fluo4-AM dye-based fluorescence assay relative to S-glutamate; assay type: cell-based

Q: How did the Activity [1] turn out when `Cn1nc(O)c(C(N)C(=O)O)n1` (racemic) was run?
A: inactive

Q: What about the Activity [2] of the same compound?
A: Active

Q: And the Activity [3]?
A: Active

Q: And the Activity [4]?
A: Active

Q: What about the Imax [5] of the same compound?
A: 38%

Q: And the Imax [6]?
A: 52%

Q: And the Imax [7]?
A: 107%

Q: What about the Imax [8] of the same compound?
A: 98%

Q: What about the Imax [9] of the same compound?
A: inactive

Q: And the Imax [10]?
A: 58%

Q: And the IC50 [11]?
A: > 100 µM

Q: What about the EC50 [12] of the same compound?
A: 35 µM

Q: And the EC50 [13]?
A: 58 µM

Q: What does the source list for `Cn1nnc(O)c1CC(N)C(=O)O` (racemic)?
A: %max [14]: > 5%; %max [15]: > 5%; EC50 [16]: 56.2 µM; Ki [17]: 1.87 µM

Q: For `CCn1nc(O)c(CC(N)C(=O)O)n1` (racemic), which IC50 [11] is on record?
A: > 100 µM

Q: And the EC50 [18]?
A: > 1000 µM

Q: And the EC50 [19]?
A: > 1000 µM

Q: What about the EC50 [20] of the same compound?
A: > 1000 µM

Q: What about the EC50 [16] of the same compound?
A: > 1000 µM

Q: And the Ki [21]?
A: > 100 µM

Q: What about the Ki [22] of the same compound?
A: > 100 µM

Q: And the Ki [17]?
A: > 100 µM

Q: And the Ki [23]?
A: 100 µM

Q: And the Ki [24]?
A: > 100 µM

Q: How did the IC50 [11] turn out when `CN[C@H](CC(=O)O)C(=O)O` [N-METHYL-D-ASPARTIC ACID (NMDA)] was run?
A: > 100 µM

Q: For `CCCn1nc(O)c(CC(N)C(=O)O)n1` (racemic), which %max [25] is on record?
A: > 5%

Q: And the IC50 [11]?
A: > 100 µM

Q: And the EC50 [18]?
A: > 1000 µM

Q: And the Ki [21]?
A: > 100 µM

Q: What about the Ki [22] of the same compound?
A: > 100 µM

Q: And the Ki [17]?
A: > 100 µM

Q: And the Ki [23]?
A: > 100 µM

Q: And the Ki [24]?
A: > 100 µM

Q: How did the %max [15] turn out when `CCCn1nnc(O)c1CC(N)C(=O)O` (racemic) was run?
A: > 5%

Q: And the EC50 [16]?
A: 51 µM

Q: And the Ki [21]?
A: > 100 µM

Q: And the Ki [17]?
A: 3.25 µM

Q: And the Ki [24]?
A: 100 µM

Q: What does the source list for `Cn1nnc(-c2onc(O)c2CC(N)C(=O)O)n1` (centres undefined)?
A: Ki [17]: 0.0039 µM; Ki [23]: 0.0022 µM; Ki [24]: 0.0027 µM
